Results from PubChem BioAssay AID2060912 (Molecular Pharmacology Branch, DTP, NCI, 2025).

Test system: HUVEC/MSC spheroids viability
Assay: Human HUVEC/MSC cell line growth inhibition [KRAS2];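 on viability, T/C: percent of DMSO vehicle control luminescence so 100% = untreated viability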
Conditions: for IC50: curve of first compound; for viability, T/C: stronger effect = lower value
Procedure, shortened: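 The concentration series started at or near clinical Cmax (10 microM if not known) and fell in half-log increments, alone or in combination. Cells were stromal-only spheroids of pooled-donor HUVEC and hMSC (passage </=5), with different drug plates and layout from the tumor spheroid screens.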

[1] = second compound 0.0316 µM, first compound 0.0316 µM
[2] = second compound 0.0316 µM, first compound 0.1 µM
[3] = second compound 0.0316 µM, first compound 0.316 µM
[4] = second compound 0.0316 µM, first compound 1 µM
[5] = second compound 0.0316 µM, first compound 3.16 µM
[6] = second compound 0.0316 µM, first compound 10 µM
[7] = second compound 0.1 µM, first compound 0.0316 µM
[8] = second compound 0.1 µM, first compound 0.1 µM
[9] = second compound 0.1 µM, first compound 0.316 µM
[10] = second compound 0.1 µM, first compound 1 µM
[11] = second compound 0.1 µM, first compound 3.16 µM
[12] = second compound 0.1 µM, first compound 10 µM
[13] = second compound 0.316 µM, first compound 0.0316 µM
[14] = second compound 0.316 µM, first compound 0.1 µM
[15] = second compound 0.316 µM, first compound 0.316 µM
[16] = second compound 0.316 µM, first compound 1 µM
[17] = second compound 0.316 µM, first compound 3.16 µM
[18] = second compound 0.316 µM, first compound 10 µM
[19] = second compound 1 µM, first compound 0.0316 µM
[20] = second compound 1 µM, first compound 0.1 µM
[21] = second compound 1 µM, first compound 0.316 µM
[22] = second compound 1 µM, first compound 1 µM
[23] = second compound 1 µM, first compound 3.16 µM
[24] = second compound 1 µM, first compound 10 µM
[25] = second compound 3.16 µM, first compound 0.0316 µM
[26] = second compound 3.16 µM, first compound 0.1 µM
[27] = second compound 3.16 µM, first compound 0.316 µM
[28] = second compound 3.16 µM, first compound 1 µM
[29] = second compound 3.16 µM, first compound 3.16 µM
[30] = second compound 3.16 µM, first compound 10 µM
[31] = second compound 10 µM, first compound 0.0316 µM
[32] = second compound 10 µM, first compound 0.1 µM
[33] = second compound 10 µM, first compound 0.316 µM
[34] = second compound 10 µM, first compound 1 µM
[35] = second compound 10 µM, first compound 3.16 µM
[36] = second compound 10 µM, first compound 10 µM

CC1OCC2(CCN(c3cnc(Sc4ccnc(N)c4Cl)c(N)n3)CC2)C1N (stereo unspecified) + C=CC(=O)N1CCN(c2nc(=O)n(-c3c(C)ccnc3C(C)C)c3nc(-c4c(O)cccc4F)c(F)cc23)C(C)C1 was tested, and the IC50 (second compound 0.0316 µM) was > 10 µM, the IC50 (second compound 0.1 µM) was > 10 µM and the IC50 (second compound 0.316 µM) was > 10 µM. For the same molecule, the IC50 (second compound 1 µM) was > 10 µM, the IC50 (second compound 3.16 µM) was > 10 µM and the IC50 (second compound 10 µM) was > 10 µM. It also gave a viability, T/C [1] of 118%, a viability, T/C [2] of 101% and a viability, T/C [3] of 105%. For the same molecule, the viability, T/C [4] was 80.5%, the viability, T/C [5] was 70.1% and the viability, T/C [6] was 70.5%. It also gave a viability, T/C [7] of 110%, a viability, T/C [8] of 107% and a viability, T/C [9] of 97.2%. It also gave a viability, T/C [10] of 84.3%, a viability, T/C [11] of 72% and a viability, T/C [12] of 67.9%. It also gave a viability, T/C [13] of 96.8%, a viability, T/C [14] of 129% and a viability, T/C [15] of 92.1%. The viability, T/C [16] was 88%, the viability, T/C [17] was 81.8% and the viability, T/C [18] was 78.5%. For the same molecule, the viability, T/C [19] was 101%, the viability, T/C [20] was 126% and the viability, T/C [21] was 105%. For the same molecule, the viability, T/C [22] was 99.7%, the viability, T/C [23] was 89% and the viability, T/C [24] was 77.5%. For the same molecule, the viability, T/C [25] was 116%, the viability, T/C [26] was 136% and the viability, T/C [27] was 111%. It also gave a viability, T/C [28] of 92.7%, a viability, T/C [29] of 109% and a viability, T/C [30] of 71.3%. The viability, T/C [31] was 104%, the viability, T/C [32] was 121% and the viability, T/C [33] was 120%. It also gave a viability, T/C [34] of 98.3%, a viability, T/C [35] of 95.5% and a viability, T/C [36] of 54.7%.

CC(=O)Nc1cccc(-n2c(=O)n(C3CC3)c(=O)c3c(Nc4ccc(I)cc4F)n(C)c(=O)c(C)c32)c1 + C=CC(=O)N1CCN(c2nc(=O)n(-c3c(C)ccnc3C(C)C)c3nc(-c4c(O)cccc4F)c(F)cc23)C(C)C1 gave an IC50 (second compound 0.0316 µM) of 0.0161 µM, an IC50 (second compound 0.1 µM) of 0.0178 µM and an IC50 (second compound 0.316 µM) of 0.0168 µM. The IC50 (second compound 1 µM) was 0.0179 µM, the IC50 (second compound 3.16 µM) was 0.0163 µM and the IC50 (second compound 10 µM) was 0.0137 µM. It also gave a viability, T/C (second compound 0.0316 µM, first compound 94.9 pM) of 126%, a viability, T/C (second compound 0.0316 µM, first compound 0.0003 µM) of 140% and a viability, T/C (second compound 0.0316 µM, first compound 0.000949 µM) of 163%. The viability, T/C (second compound 0.0316 µM, first compound 0.003 µM) was 114%, the viability, T/C (second compound 0.0316 µM, first compound 0.00949 µM) was 77.1% and the viability, T/C (second compound 0.0316 µM, first compound 0.03 µM) was 20.7%. It also gave a viability, T/C (second compound 0.1 µM, first compound 94.9 pM) of 92.7%, a viability, T/C (second compound 0.1 µM, first compound 0.0003 µM) of 130% and a viability, T/C (second compound 0.1 µM, first compound 0.000949 µM) of 141%. It also gave a viability, T/C (second compound 0.1 µM, first compound 0.003 µM) of 113%, a viability, T/C (second compound 0.1 µM, first compound 0.00949 µM) of 88.3% and a viability, T/C (second compound 0.1 µM, first compound 0.03 µM) of 18.6%. It also gave a viability, T/C (second compound 0.316 µM, first compound 94.9 pM) of 126%, a viability, T/C (second compound 0.316 µM, first compound 0.0003 µM) of 157% and a viability, T/C (second compound 0.316 µM, first compound 0.000949 µM) of 151%. The viability, T/C (second compound 0.316 µM, first compound 0.003 µM) was 119%, the viability, T/C (second compound 0.316 µM, first compound 0.00949 µM) was 80.3% and the viability, T/C (second compound 0.316 µM, first compound 0.03 µM) was 20.6%. It also gave a viability, T/C (second compound 1 µM, first compound 94.9 pM) of 148%, a viability, T/C (second compound 1 µM, first compound 0.0003 µM) of 133% and a viability, T/C (second compound 1 µM, first compound 0.000949 µM) of 148%. The viability, T/C (second compound 1 µM, first compound 0.003 µM) was 112%, the viability, T/C (second compound 1 µM, first compound 0.00949 µM) was 89.8% and the viability, T/C (second compound 1 µM, first compound 0.03 µM) was 19.7%. For the same molecule, the viability, T/C (second compound 3.16 µM, first compound 94.9 pM) was 144%, the viability, T/C (second compound 3.16 µM, first compound 0.0003 µM) was 157% and the viability, T/C (second compound 3.16 µM, first compound 0.000949 µM) was 170%. For the same molecule, the viability, T/C (second compound 3.16 µM, first compound 0.003 µM) was 120%, the viability, T/C (second compound 3.16 µM, first compound 0.00949 µM) was 82% and the viability, T/C (second compound 3.16 µM, first compound 0.03 µM) was 16.8%. It also gave a viability, T/C (second compound 10 µM, first compound 94.9 pM) of 134%, a viability, T/C (second compound 10 µM, first compound 0.0003 µM) of 157% and a viability, T/C (second compound 10 µM, first compound 0.000949 µM) of 164%. It also gave a viability, T/C (second compound 10 µM, first compound 0.003 µM) of 130%, a viability, T/C (second compound 10 µM, first compound 0.00949 µM) of 70.4% and a viability, T/C (second compound 10 µM, first compound 0.03 µM) of 8.78%.

Molecule CC1(C)CCC(CN2CCN(c3ccc(C(=O)NS(=O)(=O)c4ccc(NCC5CCOCC5)c([N+](=O)[O-])c4)c(Oc4cnc5[nH]ccc5c4)c3)CC2)=C(c2ccc(Cl)cc2)C1 + C=CC(=O)N1CCN(c2nc(=O)n(-c3c(C)ccnc3C(C)C)c3nc(-c4c(O)cccc4F)c(F)cc23)C(C)C1 has an IC50 (second compound 0.0316 µM) of 4.57 µM, an IC50 (second compound 0.1 µM) of 4.7 µM and an IC50 (second compound 0.316 µM) of 5.75 µM. It also gave an IC50 (second compound 1 µM) of 5.28 µM, an IC50 (second compound 3.16 µM) of 5.97 µM and an IC50 (second compound 10 µM) of 5.96 µM. For the same molecule, the viability, T/C [1] was 105%, the viability, T/C [2] was 92% and the viability, T/C [3] was 95.4%. It also gave a viability, T/C [4] of 85.4%, a viability, T/C [5] of 75.2% and a viability, T/C [6] of 2.28%. It also gave a viability, T/C [7] of 114%, a viability, T/C [8] of 101% and a viability, T/C [9] of 114%. It also gave a viability, T/C [10] of 85.7%, a viability, T/C [11] of 80.1% and a viability, T/C [12] of 3.17%. The viability, T/C [13] was 104%, the viability, T/C [14] was 100% and the viability, T/C [15] was 97.2%. For the same molecule, the viability, T/C [16] was 115%, the viability, T/C [17] was 97.3% and the viability, T/C [18] was 6.37%. For the same molecule, the viability, T/C [19] was 144%, the viability, T/C [20] was 125% and the viability, T/C [21] was 125%. It also gave a viability, T/C [22] of 115%, a viability, T/C [23] of 86.5% and a viability, T/C [24] of 6.99%. For the same molecule, the viability, T/C [25] was 97%, the viability, T/C [26] was 123% and the viability, T/C [27] was 104%. It also gave a viability, T/C [28] of 113%, a viability, T/C [29] of 101% and a viability, T/C [30] of 8.7%. It also gave a viability, T/C [31] of 115%, a viability, T/C [32] of 143% and a viability, T/C [33] of 162%. It also gave a viability, T/C [34] of 119%, a viability, T/C [35] of 93.6% and a viability, T/C [36] of 15.4%.
